# Assay results from PubChem BioAssay AID463199 (Broad Institute, 2010).
# The source made the active and inactive calls.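 The calls were made as follows: active = AC50, the dose giving half-maximal effect, exceeds a fixed cutoff for a compound that rescues yeast growth under heat; inactive = the rest, inconclusive results apart.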
# Tested on: S. cerevisiae Burl-1 ts mutant growth, BacTiter-Glo, 38.5C 24 h
# Assay: growth induction of Burl-1 ts yeast mutant, dose response, counter-screen for SUMOylation pathway inhibitor project, whole organism, S. cerevisiae, luminescence (AID 463199)
row,Structure (SMILES),AC50
1,CC(=O)c1ccc2noc(-c3ccc(F)cc3)c2c1,> 42 µM (inactive)
2,CCOc1ccc(N2CC(C(=O)OC)CC2=O)cc1 (configuration not stated),> 42 µM (inactive)
3,N#C/C(=C\c1cc([N+](=O)[O-])c(N2CCOCC2)cc1N1CCOCC1)c1nc2ccccc2[nH]1,> 42 µM (inactive)
4,COc1cc(C(=O)NCCC2=CCCCC2)ccc1OC1CCN(C(C)=O)CC1,> 42 µM (inactive)
5,CCNc1ccc(S(=O)(=O)N(C)C)cc1NCC(=O)Nc1ccccc1Br,> 42 µM (inactive)
6,COc1ccccc1NC(=S)N(Cc1ccco1)Cc1cc2cccc(C)c2[nH]c1=O,> 42 µM (inactive)
7,CCOc1c(Cl)cc(CNCC(O)c2ccccc2)cc1OC (configuration not stated),> 42 µM (inactive)
8,CCCCCNC(=O)c1ccc2c(=O)n(CC3CCCO3)c(=O)[nH]c2c1 (configuration not stated),7.49 µM
9,CCN(CC)CCCN(Cc1cc2cc(OC)ccc2[nH]c1=O)C(=O)Nc1ccc(F)cc1,> 42 µM (inactive)
10,CSc1nsc(SCC(=O)Nc2cccc(C(=O)O)c2)n1,> 42 µM (inactive)
11,COC(=O)CSc1ccc(S(=O)(=O)N2CCCCCC2)cc1[N+](=O)[O-],> 42 µM (inactive)
12,COc1cc2c(cc1NC(=O)c1cccnc1)oc1ccccc12,> 42 µM (inactive)
13,CCN(CC1COc2ccccc2O1)C(=S)NCCCN(C)C (configuration not stated),> 42 µM (inactive)
14,COc1cc(C(c2c(C)[nH][nH]c2=O)c2c(C)[nH][nH]c2=O)cc(OC)c1OC,> 42 µM (inactive)
15,CCCNC(=O)Cn1sc2nc(C)cc(C)c2c1=O,> 42 µM (inactive)
16,COc1ccccc1N1CCN(CCN2C(=O)C3CCCCN3C2=O)CC1 (configuration not stated),> 42 µM (inactive)
17,O=c1cnc2cc([N+](=O)[O-])ccc2[nH]1,> 42 µM (inactive)
18,O=C1c2ccccc2S(=O)(=O)N1Cc1cc(=O)n2ccsc2n1,> 42 µM (inactive)
19,O=C(COC(=O)[C@@H]1CC(O)CN1S(=O)(=O)c1ccccc1[N+](=O)[O-])Nc1ccc2ccccc2c1 (some centres not stated),> 42 µM (inactive)
20,O=C(/C=C/c1ccc(Cl)cc1Cl)Nc1cccc(S(=O)(=O)NC2=NCCCCC2)c1,> 42 µM (inactive)
21,Cc1nc(CCNC(=O)c2ccccc2)cs1,> 42 µM (inactive)
22,c1ccc(-c2csc(NC3CCCCC3)n2)cc1,> 42 µM (inactive)
23,O=C1CN(C(=O)c2ccccc2F)C(c2ccccc2)c2cc(Cl)ccc2N1 (configuration not stated),> 42 µM (inactive)
24,COc1ccc(C)cc1S(=O)(=O)N1CCC(C(=O)NCCc2ccccc2)CC1,> 42 µM (inactive)
25,CCOC(=O)c1nc(Nc2ccccc2CC)c2ccccc2n1,> 42 µM (inactive)

row,Structure (SMILES),AC50
1,CCCCN(C)C(=O)c1cc2c(Cl)nc3ccccc3c2s1,> 42 µM (inactive)
2,O=S(=O)(NCc1cccc(C(F)(F)F)c1)NCc1ccccc1F,> 42 µM (inactive)
3,CC(=O)Nc1ccc(S(=O)(=O)Nc2ccc3c(c2)C(=O)OC3)cc1,> 42 µM (inactive)
4,CC(Cc1ccc(O)c(O)c1)C(C)Cc1ccc(O)c(O)c1 (configuration not stated),> 42 µM (inactive)
5,OC(COCc1cccs1)CN1CCCCCC1 (configuration not stated),> 42 µM (inactive)
6,COc1ccc(Cl)cc1C(=O)NCCc1ccc(S(=O)(=O)NC(=O)NC2CCCCC2)cc1,> 42 µM (inactive)
7,CC(=O)Nc1cc2nn(-c3ccccc3)nc2cc1Cl,> 42 µM (inactive)
8,O=S(=O)(NCC1CCCO1)c1cc(Cl)ccc1Br (configuration not stated),> 42 µM (inactive)
9,CCC(=O)N(Cc1ccc2c(c1)OCO2)Cc1cc2cc(OC)ccc2[nH]c1=O,> 42 µM (inactive)
10,CC(=O)Nc1ccc(/C(C)=N/NC(=O)c2ccncc2)cc1,> 42 µM (inactive)
11,COc1ccc(S(=O)(=O)N2CCc3cc4c(cc3C2C)OCCCO4)cc1 (configuration not stated),> 42 µM (inactive)
12,Cc1sc2ncn(C(C)C(=O)OC3CCCCC3)c(=O)c2c1C (configuration not stated),> 42 µM (inactive)
13,O=C(C1CCC(CNc2c(N3CCCCC3)c(=O)c2=O)CC1)N1CCN(C2CCCCC2)CC1 (configuration not stated),> 42 µM (inactive)
14,Cc1cccc(N2CCN(C(=O)CN3C(=O)NC(C)(C)C3=O)CC2)c1C,> 42 µM (inactive)
15,Cc1cc2c(C)ccc(C)c2nc1SCC(=O)c1cccs1,> 42 µM (inactive)
16,Oc1c(Cl)cc(Cl)cc1/C=N/c1nc(-c2ccc(Cl)cc2)cs1,> 42 µM (inactive)
17,COc1ccc(-c2csc(NC(=O)CCS(=O)(=O)c3ccccc3)n2)c(OC)c1,> 42 µM (inactive)
18,CN(C)C(=O)CSc1nc2ccc(N3C(=O)c4ccccc4C3=O)cc2s1,> 42 µM (inactive)
19,Cc1ccc(NC(=S)NNC(=O)c2ccc(N3CCOCC3)c([N+](=O)[O-])c2)cc1C,> 42 µM (inactive)
20,O=C(COc1ccccc1)Nc1ccc(OC(F)(F)C(F)F)c(NC(=O)COc2ccccc2)c1,> 42 µM (inactive)
21,Cc1ccc(C(=O)/C=C/Nc2ccccc2C(N)=O)cc1,> 42 µM (inactive)
22,COc1cccc(-c2nn(-c3ccccc3)cc2/C=C(/NC(=O)c2ccccc2)C(=O)O)c1,> 42 µM (inactive)
23,COc1ccccc1-c1nc2ccccc2nc1-c1ccccc1OC,> 42 µM (inactive)
24,Cc1nc2ccccc2n(CC(=O)Nc2cc(Cl)cc(Cl)c2)c1=O,> 42 µM (inactive)
25,COC(=O)C12CCC3(SCCS3)C(C(=O)OC)(CCC13SCCS3)C2,> 42 µM (inactive)

row,Structure (SMILES),AC50
1,Cc1c(NC(C)c2cc(Cl)ccc2O)c(=O)n(-c2ccccc2)n1C (configuration not stated),> 42 µM (inactive)
2,COC(=O)[C@@H]1[C@@H](C(=O)OC)C2(c3ccccc3-c3ccccc32)N(c2ccc(Cl)cc2)N1C#N,> 42 µM (inactive)
3,CCOC(=O)C1CCN(C(=O)c2ccc3c(c2)NC(=O)/C(=C/c2ccccc2)S3)CC1,> 42 µM (inactive)
4,COC(=O)C1=C(C)NC(C)=C([N+](=O)[O-])C1c1ccccc1C(F)(F)F (configuration not stated),> 42 µM (inactive)
5,CC(=O)Nc1cccc(NC(=S)Nc2ccc(F)cc2F)c1,> 42 µM (inactive)
6,Cc1cc(C)c(S(=O)(=O)c2cccc(C)c2C)c(=O)[nH]1,> 42 µM (inactive)
7,CN(C)c1ccc(NC(=O)CSc2nc(N)c(C(=O)Nc3ccc(N(C)C)cc3)s2)cc1,> 42 µM (inactive)
8,CCOc1ccc(-c2nc(C#N)c(N3CCOCC3)o2)cc1,> 42 µM (inactive)
9,C=C(C)Cn1c(N)cc(=O)nc1SCC(=O)Nc1cccc(C(F)(F)F)c1,> 42 µM (inactive)
10,N#Cc1ccc(C23CC4(C2)[C@H](CN(Cc2ccc(C(F)(F)F)cc2)[C@@H]4c2ccccc2)C3c2ccc(C(F)(F)F)cc2)cc1 (some centres not stated),> 42 µM (inactive)
11,COC(=O)c1ccc(CSc2nnnn2-c2ccccc2)o1,> 42 µM (inactive)
12,Cc1ccc(SC[C@H](C)CN2CC[C@H](C)CCC2=O)cc1,> 42 µM (inactive)
13,CC(C)[C@H](NC(=O)C1(c2ccccc2)CCN(C(=O)OC(C)(C)C)CC1)C(=O)O,> 42 µM (inactive)
14,CCN(CC)c1nc(Nc2ccc(Cl)cc2)nc(OCC#N)n1,> 42 µM (inactive)
15,CCOc1ccc(Cl)cc1S(=O)(=O)N1CCC(C(=O)NCc2cccnc2)CC1,> 42 µM (inactive)
16,Oc1ccccc1-c1cc(C(F)(F)C(F)F)[nH]n1,> 42 µM (inactive)
17,CC1(C)Oc2ccc3ccc(=O)oc3c2/C(=C/Nc2ccc(O)cc2)C1=O,> 42 µM (inactive)
18,COc1cc(/C=N/NC(=O)c2cccc([N+](=O)[O-])c2)ccc1O,> 42 µM (inactive)
19,Cc1c(NC(=O)c2cc(-c3ccccc3O)on2)c(=O)n(-c2ccccc2)n1C,> 42 µM (inactive)
20,COc1cccc(C2C(C(C)=O)=C(O)C(=O)N2CCc2c[nH]c3ccccc23)c1 (configuration not stated),> 42 µM (inactive)
21,Cc1cnc(C(=O)OCC(=O)Nc2ccc(C)c(S(=O)(=O)N(C)C)c2)cn1,> 42 µM (inactive)
22,COCCNC(=O)C(=O)NCC1OCCN1C(=O)c1ccc(Cl)cc1 (configuration not stated),> 42 µM (inactive)
23,Cc1c(NP(=O)(c2ccc(Br)cc2)c2ccc(Br)cc2)c(=O)n(-c2ccccc2)n1C,> 42 µM (inactive)
24,CC(C)CCNC(=O)Cn1c(=O)oc2cc(S(=O)(=O)N3CC(C)CC(C)C3)ccc21 (configuration not stated),> 42 µM (inactive)
25,NC(=O)NC(=O)COC(=O)/C=C/c1cccs1,> 42 µM (inactive)

row,Structure (SMILES),AC50
1,COc1ccc(NC(=O)C2CCCN2S(=O)(=O)c2cccc3cccnc23)cc1OC (configuration not stated),> 42 µM (inactive)
2,CCc1ccc2c(c1)C(c1ccc([N+](=O)[O-])cc1)=NNC(c1ccc(C)cc1)=N2,> 42 µM (inactive)
3,CCCCNS(=O)(=O)c1ccc(OC)cc1,> 42 µM (inactive)
4,Cc1ccc2cccc(OCc3nnc(SCC(=O)O)n3C)c2n1,> 42 µM (inactive)
5,CC(=O)Cc1nsc(Nc2cccc(C)c2)n1,> 42 µM (inactive)
6,CCOc1ccc(Cn2c(SCCCCC#N)nc3c2c(=O)n(C)c(=O)n3C)cc1OCC,> 42 µM (inactive)
7,CC1CCCCC1N=CC1=C(O)CC(C)(C)CC1=O (configuration not stated),> 42 µM (inactive)
8,CCC(C)NCCOc1ccccc1C (configuration not stated),> 42 µM (inactive)
9,O=C(Nc1ccncc1Cl)c1ccncc1,> 42 µM (inactive)
10,Cc1nc(N2CCN(c3ccccn3)CC2)c2c(C)c(C(=O)N3CCN(c4ccccc4F)CC3)sc2n1,> 42 µM (inactive)
11,O=C(CN1CCc2ccccc21)NN1CC(=O)N(c2ccc(Cl)cc2)CC1=O,> 42 µM (inactive)
12,CCCCn1c(/C=N/Nc2nc3ccccc3[nH]2)nc2ccccc21,> 42 µM (inactive)
13,CCNC(=O)NC(C(=O)OC)C12CC3CC(CC(C3)C1)C2 (configuration not stated),> 42 µM (inactive)
14,COc1ccc(NC(=O)c2ccc(-n3cncn3)c([N+](=O)[O-])c2)cc1,> 21 µM (inactive)
15,O=S(=O)(CCN1CCCCC1)Oc1ccc(Cl)cc1Cl,> 42 µM (inactive)
16,Cc1ccc(/C=C/C(=O)OCC(=O)N(CC(C)C)c2c(N)n(Cc3ccccc3)c(=O)[nH]c2=O)o1,> 21 µM (inactive)
17,COc1cc(NC(=O)CN2CCN(CC(=O)Nc3ccccc3OC)CC2)cc(OC)c1,> 42 µM (inactive)
18,COc1ccc(-c2cc(C(F)(F)F)n3ncc(C(=O)O)c3n2)cc1OC,> 42 µM (inactive)
19,C=CCOc1ccccc1CN1CCCC(CCC(=O)N(C)CCc2ccccn2)C1 (configuration not stated),> 21 µM (inactive)
20,CC1CC(C)(C)N2C(=O)C3(Nc4ccccc4S3)c3cccc1c32 (configuration not stated),> 42 µM (inactive)
21,O=[N+]([O-])c1ccc(N/N=C/c2cccc(O)c2)cc1,> 42 µM (inactive)
22,COc1ccc(Cn2nnnc2CN2CCN(c3ccc(OC)cc3)CC2)cc1,> 42 µM (inactive)
